Data published in the NIST ThermoML archive (doi:10.1021/je300590v).
Numbers after ± are expanded uncertainties.

Conditions: Vibrating tube method

O=C=O [carbon dioxide]
Conditions | mass density [kg/m3]
273.15 K, 1001 kPa, Gas | 21.2 ± 0.2
273.15 K, 2001 kPa, Gas | 45.7 ± 0.2
273.15 K, 3001 kPa, Gas | 77.3 ± 0.2
273.15 K, 3300 kPa, Gas | 89.9 ± 0.2
273.15 K, 3500 kPa, Liquid | 928.1 ± 0.9
273.15 K, 4001 kPa, Liquid | 932.4 ± 0.9
273.15 K, 5001 kPa, Liquid | 940.7 ± 0.9
273.15 K, 6000 kPa, Liquid | 948.2 ± 0.9
273.15 K, 7000 kPa, Liquid | 955.3 ± 0.9
273.15 K, 8003 kPa, Liquid | 961.9 ± 0.8
273.15 K, 9001 kPa, Liquid | 968.1 ± 0.8
273.15 K, 10002 kPa, Liquid | 974.1 ± 0.8
273.15 K, 11003 kPa, Liquid | 979.7 ± 0.8
273.15 K, 12000 kPa, Liquid | 985.1 ± 0.8
273.15 K, 13004 kPa, Liquid | 990.1 ± 0.8
273.15 K, 14002 kPa, Liquid | 995 ± 0.8
273.15 K, 15001 kPa, Liquid | 999.7 ± 0.8
273.15 K, 16002 kPa, Liquid | 1004.3 ± 0.7
273.15 K, 17000 kPa, Liquid | 1008.6 ± 0.7
273.15 K, 18001 kPa, Liquid | 1012.8 ± 0.7
273.15 K, 19001 kPa, Liquid | 1017 ± 0.7
273.15 K, 20000 kPa, Liquid | 1020.8 ± 0.7
283.15 K, 1000 kPa, Gas | 20.4 ± 0.2
283.15 K, 2001 kPa, Gas | 43.1 ± 0.2
283.15 K, 3001 kPa, Gas | 70.9 ± 0.2
283.15 K, 4000 kPa, Gas | 108.4 ± 0.3
283.15 K, 4400 kPa, Gas | 130.1 ± 0.3
283.15 K, 5001 kPa, Liquid | 869.1 ± 1.1
283.15 K, 6003 kPa, Liquid | 882.2 ± 1
283.15 K, 7000 kPa, Liquid | 893.3 ± 1
283.15 K, 8001 kPa, Liquid | 903 ± 0.9
283.15 K, 9001 kPa, Liquid | 912.2 ± 0.9
283.15 K, 10001 kPa, Liquid | 920.4 ± 0.8
283.15 K, 11001 kPa, Liquid | 928.2 ± 0.8
283.15 K, 12000 kPa, Liquid | 935.5 ± 0.8
283.15 K, 13001 kPa, Liquid | 942.2 ± 0.8
283.15 K, 14001 kPa, Liquid | 948.3 ± 0.8
283.15 K, 15000 kPa, Liquid | 954.3 ± 0.8
283.15 K, 16001 kPa, Liquid | 960.1 ± 0.8
283.15 K, 17001 kPa, Liquid | 965.5 ± 0.8
283.15 K, 18002 kPa, Liquid | 970.8 ± 0.7
283.15 K, 19001 kPa, Liquid | 975.7 ± 0.7
283.15 K, 20000 kPa, Liquid | 980.4 ± 0.7
293.15 K, 1011 kPa, Gas | 19.8 ± 0.2
293.15 K, 2001 kPa, Gas | 41 ± 0.2
293.15 K, 3001 kPa, Gas | 66.2 ± 0.2
293.15 K, 4000 kPa, Gas | 97.3 ± 0.2
293.15 K, 5000 kPa, Gas | 140.4 ± 0.3
293.15 K, 5600 kPa, Gas | 182.2 ± 0.5
293.15 K, 5800 kPa, Liquid | 774.1 ± 1.2
293.15 K, 6001 kPa, Liquid | 783.3 ± 1.2
293.15 K, 7003 kPa, Liquid | 809.1 ± 1.1
293.15 K, 8001 kPa, Liquid | 827.5 ± 1
293.15 K, 9002 kPa, Liquid | 843.2 ± 0.9
293.15 K, 10001 kPa, Liquid | 856.1 ± 0.9
293.15 K, 11001 kPa, Liquid | 867.7 ± 0.9
293.15 K, 12000 kPa, Liquid | 877.9 ± 0.8
293.15 K, 13000 kPa, Liquid | 887.3 ± 0.8
293.15 K, 14000 kPa, Liquid | 895.9 ± 0.8
293.15 K, 15003 kPa, Liquid | 904 ± 0.8
293.15 K, 16003 kPa, Liquid | 911.5 ± 0.8
293.15 K, 17001 kPa, Liquid | 918.6 ± 0.8
293.15 K, 18002 kPa, Liquid | 925 ± 0.8
293.15 K, 19002 kPa, Liquid | 931.2 ± 0.8
293.15 K, 20000 kPa, Liquid | 937.1 ± 0.8
